According to ChEMBL document CHEMBL1201862, “PubChem BioAssay data set” (2004):
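Protocol summary: plate cells (96-well), add compound at 5 concentrations, incubate 48 h, interpolate endpoints linearly. Here, GI50 denotes the concentration required for 50% inhibition of growth.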 Active and inactive are the calls of the source. No stated cut-off is given here; in the data, active = GI50 up to about 1.1 µM and inactive = higher. Where a SMILES comes first, the peptide text is derived from it. Square brackets hold non-standard residues; d marks the D form. Peptide text beside a SMILES is read from it. The star is where a group is joined. * marks the point of attachment. Tyr(3-Br) = N[C@@H](Cc1ccc(O)c(Br)c1)C(=O)O; Boc = CC(C)(C)OC(=O)*

How the values were obtained:
Assay in all cases: inhibition of tumour cell growth, NCI panel, 48 h
[1] = tested on: T47D
[2] = tested on: M19-MEL
[3] = tested on: HOP-18
[4] = tested on: DMS-114
[5] = tested on: DMS-273
[6] = tested on: DLD-1
[7] = tested on: XF498
[8] = tested on: LXFL 529

## CC1CCC2(C(=O)O)CCC3(C)C(=CCC4C5(C)CCC(O)C(C)(C)C5CCC43C)C2C1C (stereo not given)
[1]
  GI50: 14.2 µM (inactive)
[2]
  GI50: 8.17 µM (inactive)
[3]
  GI50: 15.5 µM (inactive)
[4]
  GI50: 9.42 µM (inactive)
[5]
  GI50: 10.9 µM (inactive)
[6]
  GI50: 6.53 µM (inactive)
[7]
  GI50: 5.86 µM (inactive)

## O=C(Cc1ccc(Cl)cc1)Nc1ccc2oc(-c3ccccc3)nc2c1
[1]
  GI50: > 100 µM (inactive)

## COc1ccccc1[S+]([O-])Nc1ccccc1 (stereo not given)
[1]
  GI50: 11.9 µM (inactive)

## COC(=O)C(Cc1c[nH]c2ccccc12)NC(=O)C(Cc1c[nH]c2ccccc12)NC(=O)C(Cc1c[nH]c2ccccc12)NC(=O)OC(C)(C)C (stereo not drawn) (Boc-Trp-Trp-Trp-OMe; configuration not given here)
[1]
  GI50: 4.67 µM (inactive)

## COc1cc(/C=C/C=C2\CC(C)C/C(=C\C=C\c3ccc(O)c(OC)c3)C2=O)ccc1O (stereo not given)
[1]
  GI50: 7.48 µM (inactive)

## Cn1c(=O)c2c(ncn2CCNC(CO)C(O)c2ccc([N+](=O)[O-])cc2)n(C)c1=O (stereo not given)
[1]
  GI50: 5.64 µM (inactive)

## NS(=O)(=O)c1ccc(NCc2cccc3c(=O)c4ccc(Cl)cc4oc23)cc1
[1]
  GI50: 81.3 µM (inactive)

## COC(=O)NC(=O)NC(Cc1ccccc1)NC(=O)OCc1ccccc1 (stereo not given)
[1]
  GI50: > 100 µM (inactive)

## COCOCC/C=C/C=O
[8]
  GI50: > 100 µM (inactive)
[3]
  GI50: > 100 µM (inactive)
[4]
  GI50: > 100 µM (inactive)
[6]
  GI50: > 100 µM (inactive)
[7]
  GI50: > 100 µM (inactive)

## CC1(C)CC(C)(C)CC(O)(C2(O)CC(C)(C)CC(C)(C)C2)C1
[8]
  GI50: > 100 µM (inactive)
[2]
  GI50: > 100 µM (inactive)
[4]
  GI50: > 100 µM (inactive)
[5]
  GI50: > 100 µM (inactive)
[7]
  GI50: > 100 µM (inactive)

## N=C(N)SC1c2ccccc2-c2cc([N+](=O)[O-])ccc21 (stereo not given)
[1]
  GI50: 2.95 µM (inactive)

## O=Cc1ccc2c(c1)CC1(C2)Cc2ccc(C=O)cc2C1
[1]
  GI50: 25.8 µM (inactive)

## O=C(O)c1ccc(Nc2nc3ccccc3nc2C(=O)O)cc1
[1]
  GI50: > 100 µM (inactive)

## O=[N+]([O-])/C=C/c1cc2ccccc2[nH]1
[1]
  GI50: 16.2 µM (inactive)

## [N-]=[N+]=NC1=C(c2ccccc2)C(=O)c2cccc3cccc1c23
[1]
  GI50: 5.12 µM (inactive)

## CC1=CCC[C@H]2[C@](C)(CC3=CC(=O)C(SCC(C)C)=CC3=O)[C@@H](C)CC[C@]12C
[1]
  GI50: 2.25 µM (inactive)

## Cn1/c(=N\S(=O)(=O)c2ccccc2)n(S(=O)(=O)c2ccccc2)c2ccccc21
[1]
  GI50: 40.6 µM (inactive)

## CCc1n[nH]c(=O)n1NC(=O)CCCC(=O)O
[1]
  GI50: > 100 µM (inactive)

## Cc1cc2c(cc1Cl)Sc1nnc(C)n1S2(=O)=O
[1]
  GI50: 8.18 µM (inactive)

## COc1c2ccoc2c(OC)c2oc(=O)ccc12 [ISOPIMPINELLIN]
[1]
  GI50: > 100 µM (inactive)

## c1ccc2c(c1)ccc1nc(-c3ccc4c(c3)OCO4)c3c(c12)CCC3
[1]
  GI50: 52.4 µM (inactive)

## O=C(C[C@@H]1CCCN2CCCC[C@H]12)N1c2ccccc2Sc2ccc(Cl)cc21
[1]
  GI50: 20.5 µM (inactive)

## COC1=C(OC)C(=O)C(Cc2c(Cl)nc3sc(C)cn23)=C(C)C1=O
[1]
  GI50: 23.9 µM (inactive)

## C=CCO[C@]1(CC=C)C(=O)C(=O)OC1C1COC(C)(C)O1 (stereo not given in full)
[1]
  GI50: 34.8 µM (inactive)

## Nc1nc(Cl)c(N)c(NCC2(CO)CC(CCCc3ccccc3)C2)n1 (stereo not given)
[1]
  GI50: 5.27 µM (inactive)

## CN(C)CC(C)(C)C(=O)/C=C/c1ccccc1
[8]
  GI50: 12.3 µM (inactive)
[2]
  GI50: 16.3 µM (inactive)
[3]
  GI50: 17.1 µM (inactive)
[4]
  GI50: 14.2 µM (inactive)
[5]
  GI50: 16.9 µM (inactive)
[6]
  GI50: 12.6 µM (inactive)
[7]
  GI50: 11.6 µM (inactive)

## COC1(CC[C@@H](C)COC2OC(CO)C(O)C(O)C2O)OC2C[C@H]3[C@@H]4CC[C@H]5C[C@@H](OC6OC(CO)C(OC7OC(CO)C(O)C(O)C7O)C(O)C6OC6OC(C)C(O)C(O)C6O)[C@H](O)C[C@]5(C)[C@H]4CC[C@]3(C)C2[C@@H]1C (stereo not given in full)
[1]
  GI50: 3.04 µM (inactive)

## COc1ccc2nc3cccc([N+](=O)[O-])c3c(NCCN(C)C)c2c1
[1]
  GI50: 0.146 µM (active)

## CCCC(=O)[O-].[Na+] [SODIUM BUTYRATE]
[1]
  GI50: 2420 µM (inactive)

## O=C(/C=C/c1ccsc1)c1cccs1
[1]
  GI50: 20 µM (inactive)

## CC(=O)NC(CCCN(Cc1ccccc1)C(=O)N(CCCl)N=O)C(=O)NCc1ccccc1 (stereo not given)
[8]
  GI50: > 100 µM (inactive)
[3]
  GI50: > 100 µM (inactive)
[4]
  GI50: > 100 µM (inactive)
[5]
  GI50: 41 µM (inactive)
[6]
  GI50: 62.7 µM (inactive)
[7]
  GI50: > 37.8 µM (inactive)

## CCOC(=O)C(NCc1ccccc1)(NC(=O)c1ccccc1)C(F)(F)F (stereo not given)
[1]
  GI50: 38.5 µM (inactive)

## Cc1cc(OCC(O)CO)ccc1-c1ccccc1 (stereo not given)
[8]
  GI50: > 100 µM (inactive)
[2]
  GI50: > 100 µM (inactive)
[3]
  GI50: > 100 µM (inactive)
[4]
  GI50: > 100 µM (inactive)
[5]
  GI50: > 100 µM (inactive)
[7]
  GI50: 37.1 µM (inactive)

## CC(=O)Nc1sccc1S(=O)(=O)c1ccc(Cl)cc1
[1]
  GI50: > 100 µM (inactive)

## O=[N+]([O-])c1ccc(O)c(/C=N/c2nc(-c3ccccc3)cs2)c1
[1]
  GI50: 24.3 µM (inactive)

## CSc1ccc(C2C(Cl)C(=O)N2NC(=O)c2c(Cl)c(Cl)c(Cl)c(Cl)c2-c2nc3ccccc3[nH]2)cc1 (stereo not given)
[1]
  GI50: 4.28 µM (inactive)

## Cc1ccc(S(=O)(=O)Oc2ccc(OS(=O)(=O)c3ccc(C)cc3)c3c2C(=O)c2ccccc2C3=O)cc1
[1]
  GI50: > 100 µM (inactive)

## CCOC(=O)c1c(C)n(-c2ccc(Cl)cc2)c2c1cc(O)c1[nH]c3c(c12)CCCC3
[1]
  GI50: > 100 µM (inactive)

## C=CC[C@@H]1C(=O)[C@@]2(O[Si](C(C)C)(C(C)C)C(C)C)CC[C@@H]1C[C@H]2NC(=O)OCC(Cl)(Cl)Cl
[1]
  GI50: > 100 µM (inactive)

## [N-]=[N+]=NCC1OCC(O)C(OCc2ccccc2)C1OCc1ccccc1 (stereo not given)
[1]
  GI50: 25.1 µM (inactive)

## [O-][s+]1c2c(Cc3ccccc3)c(Cc3ccccc3)c1CCc1cccc(c1)CC2
[1]
  GI50: 6.68 µM (inactive)

## CNS(=O)(=O)NNS(=O)(=O)c1ccc(C)cc1
[2]
  GI50: > 100 µM (inactive)
[4]
  GI50: > 100 µM (inactive)
[6]
  GI50: > 100 µM (inactive)

## C[C@]12c3c4cc(NC(=O)C(=O)NCc5ccc(-c6ccccn6)nc5)cc3Oc3cc(NC(=O)C(=O)NCc5ccc(-c6ccccn6)nc5)cc(c31)OC1C=C(NC(=O)C(=O)NCc3ccc(-c5ccccn5)nc3)C=C(O4)C12 (stereo not given in full)
[1]
  GI50: 26.7 µM (inactive)

## COc1ccc(N[C@H](C[S+]([O-])c2ccc(C)cc2)c2ccc(F)cc2)cc1 (stereo not given in full)
[1]
  GI50: 10.3 µM (inactive)

## NCCCN1CCN(CCCNc2ccc3ncn4c5ccccc5c(=O)c2c34)CC1
[1]
  GI50: 3.02 µM (inactive)

## CC(C)(C)c1cc(C2=NN(c3ccccc3)C(c3ccccc3)C2)cc(C(C)(C)C)c1O (stereo not given)
[1]
  GI50: 31.5 µM (inactive)

## Nc1nc2c(c(-c3cccc(Cl)c3)n1)COC/C2=C\c1cccc(Cl)c1
[1]
  GI50: 82.6 µM (inactive)

## COCCOC(=O)C1=C(O)c2ccccc2S(=O)(=O)N1C
[1]
  GI50: > 100 µM (inactive)

## Cc1cc(N(CCC#N)CCC#N)ccc1/N=N/c1ccc([N+](=O)[O-])cc1
[2]
  GI50: > 100 µM (inactive)
[4]
  GI50: 19 µM (inactive)
[5]
  GI50: 17 µM (inactive)

## Nc1nc(N)c2ncn(CCOC(c3ccccc3)P(=O)(O)O)c2n1 (stereo not given)
[2]
  GI50: > 100 µM (inactive)
[4]
  GI50: > 100 µM (inactive)
[5]
  GI50: > 100 µM (inactive)
[6]
  GI50: > 100 µM (inactive)
[7]
  GI50: > 100 µM (inactive)

## COC(=O)[C@H](Cc1ccc(O)c(Br)c1)NC(=O)[C@H](Cc1ccc(O)cc1)NC(=O)OC(C)(C)C (Boc-Tyr-[Tyr(3-Br)]-OMe)
[1]
  GI50: 20.8 µM (inactive)

## CO[C@]12CC(=O)C3(C(C[C@H]4CC5CCC6=CC(=O)CC[C@]6(OC(C)=O)C5C[C@@]43C)C1)C1C[C@H]3[C@@H]4CCC5=CC(=O)CC[C@]5(OC(C)=O)[C@H]4CC[C@]3(C)C12 (stereo not given in full)
[1]
  GI50: > 100 µM (inactive)
